Patent US9382549B2, “Glyphosate resistant plants and associated methods” (DOW AGROSCIENCES LLC, priority 2012, dated 2016)

Experiments:
[1] = test system: untransformed B104 maize line; experiment: Growth inhibition dosage response of maize cells on glyphosate; assay type: cell-based, Zea mays
[2] = test system: T1 wheat, Bobwhite MPB26RH; experiment: Wheat detailed phenotypic screen (glyphosate 420-3360 g ai/ha); assay type: in vivo, Triticum aestivum; details: untransformed donor wheat
Description: Four replicates of 12 T1 seeds per selected event and eight replicates (12 seeds each) of the untransformed donor wheat line Bobwhite MPB26RH were sown in 85 mm pots and grown to the 2-leaf stage under well-watered conditions at 25° C. with supplementary lighting providing a 12 hour photoperiod. The pots were placed in a randomised design to allow environmental effects to be removed during data analysis. At the 2-leaf stage, plant length and number of leaves was recorded for each plant before spraying with glyphosate. The first, second, third and fourth replicate of T1 plants for each selected event and the untransformed donor wheat line were sprayed at a dose rate of 420, 840, 1680 and 3360 g ai/ha, respectively. The fifth, sixth, seventh and eighth replicate of untransformed donor wheat line (total 48 plants) were not sprayed. At 7, 14 and 21 days after spraying, the plants were scored for plant length, number of leaves and phenotypic response to glyphosate using the scoring scale in Table 37. Any morphological abnormalities were also recorded. For scoring, the scorer was “blinded” with regard to plant genotype and spray dose rate to prevent scoring bias. Plants with delayed germination and poor establishment (criteria: plant length <6 cm) at the pre-spray scoring were excluded from subsequent analyses.
This differentiation was maximal at 21 days and was observed across all glyphosate dose rates. Table 41. To assess the tolerance of the transgenic events to glyphosate at each spray dose rate, null T1 plants (i.e., plants not carrying the transgene) were excluded from subsequent analyses. T1 plants with a response score of less than three at 21 days after spraying were considered to have the null genotype. […]

[3] = test system: T0 corn; experiment: T0 dgt-28 corn postemergence glyphosate tolerance; assay type: in vivo, Zea mays
Description: Zea mays dgt-28 transformation events (T0) were allowed to acclimate in the greenhouse and were grown until plants had transitioned from tissue culture to greenhouse growing conditions (i.e., 2-4 new, normal looking leaves had emerged from the whorl). Plants were grown at 27° C. under 16 hour light:8 hour dark conditions in the greenhouse. The plants were then treated with commercial formulations of DURANGO DMA™ (containing the herbicide glyphosate) with the addition of 2% w/v ammonium-sulfate. Herbicide applications were made with a track sprayer at a spray volume of 187 L/ha, 50-cm spray height. T0 plants were sprayed with a range of glyphosate from 280-4480 g ae/ha glyphosate, which is capable of significant injury to untransformed corn lines. A lethal dose is defined as the rate that causes >95% injury to the B104 inbred.
T0 events of dgt-28 linked with TraP4, TraP5, TraP8 and TraP23 were generated by Agrobacterium transformation and were allowed to acclimate under controlled growth chamber conditions until 2-4 new, normal looking leaves had emerged from the whorl. Plants were assigned individual identification numbers and sampled for copy number analyses of both dgt-28 and aad-1. Based on copy number analyses, plants were selected for protein expression analyses. […]

[4] = test system: T1 Arabidopsis; experiment: dgt-31, dgt-32, dgt-33 v1 T1 Arabidopsis response to glyphosate, visual % injury 2 WAT; assay type: in vivo, Arabidopsis thaliana
Source text: T1 plants were sampled and copy number analysis for the dgt-31, dgt-32, and dgt-33 v1 gene were completed. T1 plants were then assigned to various rates of glyphosate so that a range of copies were among each rate. For Arabidopsis, 26.25 g ae/ha glyphosate is an effective dose to distinguish sensitive plants from ones with meaningful levels of resistance. Elevated rates were applied to determine relative levels of resistance (105, 420, 1680, or 3360 g ae/ha).
All glyphosate herbicide applications were made by track sprayer in a 187 L/ha spray volume. Glyphosate used was of the commercial Durango dimethylamine salt formulation (480 g ae/L, Dow AgroSciences, LLC).
T1 plants selected above were subsequently transplanted to individual pots and sprayed with various rates of commercial glyphosate. Table 15 compares the response of dgt-31, dgt-32, and dgt-33 v1 and control genes to impart glyphosate resistance to Arabidopsis T1 transformants. Response is presented in terms of % visual injury 2 WAT. […] An arithmetic mean and standard deviation is presented for each treatment. The range in individual response is also indicated in the last column for each rate and transformation. Wild-type non-transformed Arabidopsis (cv. Columbia) served as a glyphosate sensitive control. […]

[5] = test system: T1 Arabidopsis; experiment: T1 Arabidopsis response to postemergence glyphosate, visual % injury (dgt-28, dgt-32, dgt-33, dgt-3, dgt-7); assay type: in vivo, Arabidopsis thaliana
Source text: Transgenic T1 Arabidopsis plants containing the dgt-28 transgene were sprayed with differing rates of glyphosate. Elevated rates were applied in this study to determine the relative levels of resistance (105, 420, 1,680 or 3,360 g ae/ha). A typical 1× usage rate of glyphosate that will control non-transformed Arabidopsis is 420 g ae/ha. […] The T1 Arabidopsis plants that were used in this study were variable copy number for the dgt-28 transgene. The low copy dgt-28 T1 Arabidopsis plants were self-pollinated and used to produce T2 plants.
The Arabidopsis T1 transformants were first selected from the background of untransformed seed using a glufosinate selection scheme. Three flats or 30,000 seed were analyzed for each T1 construct. The T1 plants selected above were molecularly characterized and representative plants with variable copy number were subsequently transplanted to individual pots and sprayed with various rates of commercial glyphosate as previously described. The response of these plants is presented in terms of % visual injury 2 weeks after treatment (WAT). […] An arithmetic mean and standard deviation is presented for each construct used for Arabidopsis transformation. The range in individual response is also indicated in the last column for each rate and transformation. Wild-type, non-transformed Arabidopsis (c.v. Columbia) served as a glyphosate sensitive control.

[6] = test system: EPSP synthase (DGT enzymes); experiment: Steady-state kinetic parameters of DGT enzymes (Km for PEP, kcat/Km); assay type: biochemical
Description: The enzyme activities of wild-type (WT) and mutant DGTs were measured by inorganic phosphate (Pi) production in a modified procedure described by Lanzetta et al. (1979) Anal. Bioch. […] Assays were performed in 96-well plate format in a total of 50 μL on a Spectra-Max 190 plate reader (Molecular Devices, Sunnyvale, Calif.). Typical assays contained 50 mM HEPES pH 7.5, 150 mM KCl, 2 mM DTT, and 1 mM S3P. […] Assays were initiated by addition of the DGT enzyme at concentrations that varied between 0.01-1 μM. Reactions were terminated by the addition of 235 μL of a 3:1 mixture of malachite green: ammonium molybdate solution. After complete color development (˜1 minute), the absorbance change at 660 nm was recorded and the amount of Pi formed was calculated from a standard curve. Control reactions lacking enzyme were used to correct for background absorbance. […] The data were fitted to the Michaelis-Menten equation which allowed for the determination of Km and Vmax (Equation 3) while IC50 was determined from Equation 4, where y is the relative activity and s is the Hill coefficient. Data were analyzed using GRAFIT™ version 5 software (Erithacus Software Limited, Horley, U.K.).

[7] = 420 g ai/ha, Replicate 1, 10 plants pre-spray
[8] = 840 g ai/ha, Replicate 2, 10 plants pre-spray
[9] = 1680 g ai/ha, Replicate 3, 11 plants pre-spray
[10] = 3360 g ai/ha, Replicate 4, 10 plants pre-spray

## O=C(O)CNCP(=O)(O)O [glyphosate, N-(phosphonomethyl) glycine]
[1]
  glyphosate concentration sufficient to inhibit cell growth: ≥ 0.25 mM
[2]; [7]
  No. surviving plants at 14 days after spraying: 0
  No. surviving plants at 21 days after spraying: 0
[2]; [8]
  No. surviving plants at 14 days after spraying: 3
  No. surviving plants at 21 days after spraying: 0
[2]; [9]
  No. surviving plants at 14 days after spraying: 0
  No. surviving plants at 21 days after spraying: 0
[2]; [10]
  No. surviving plants at 14 days after spraying: 1
  No. surviving plants at 21 days after spraying: 0
[3]
  glyphosate rate controlling non-transformed plants: ≥ 280 g ae/ha
[4]; Arabidopsis
  effective dose to distinguish sensitive plants from ones with meaningful levels of resistance: 26.25 g ae/ha
[5]
  typical 1× usage rate of glyphosate that will control non-transformed Arabidopsis: 420 g ae/ha

B1: DGT-28 v1: native EPSP synthase of Streptomyces sviceus (SEQ ID NO:1), N-terminal 6×His tag, E. coli expressed (protein, listed as Streptomyces sviceus)
chain: MRGMPALSLPGSKSITARALFLAAAADGVTTLVRPLRSDDTEGFAEGLVRLGYRVGRTPDTWQVDGRPQGPAVAEADVYCRDGATTARFLPTLAAAGHGTYRFDASPQMRRRPLLPLSRALRDLGVDLRHEEAEGHHPLTVRAAGVEGGEVTLDAGQSSQYLTALLLLGPLTRQGLRIRVTDLVSAPYVEITLAMMRAFGVEVAREGDVFVVPPGGYRATTYAIEPDASTASYFFAAAALTPGAEVTVPGLGTGALQGDLGFVDVLRRMGAEVSVGADATTVRGTGELRGLTANMRDISDTMPTLAAIAPFASAPVRIEDVANTRVKECDRLEACAENLRRLGVRVATGPDWIEIHPGPATGAQVTSYGDHRIVMSFAVTGLRVPGISFDDPGCVRKTFPGFHEAFAELRRGIGS
modifications: N-terminal 6xHis tag
[6]
  catalytic efficiency: 132000 M⁻¹ s⁻¹
[6]; read-out: KM^PEP
  Km: 91.6 µM

B2: DGT-31 (v1): Streptomyces EPSP synthase (GENBANK YP_004922608.1) (protein)
chain: MTVIDIPGSKSVTARALFLAAAADGTTTLLRPLHSDDTEGFTEGLTRLGYAVVREPDRWHIEGRPSGPAAADAEVHCRDGATTARFLPTLAAAAASGTYRFDASAQMRRRPLAPLTEALRTLGVDLRHDGAEGHHPLTIQASGVKGGGLTLDAGESSQYLTALLMLGPLTAEGLRIEVTELVSAPYVEITLAMMRGFGVEVVREGNTFTVPPGGYRATTYAIEPDASTASYFFAAAALTGREVTVPGLGTGALQGDLRFTEVLRRMDADVRTTSDSTTVRSDGRLAGLTVNMRDISDTMPTLAAIAPYASSPVRIEDVANTRVKECDRLEACAQNLRSMGITVRTGPDWIEIHPGTPRPTEIATHGDHRIVMSFAVAGLRTPGMSYDDPGCVRKTFPRFHEEFAAFVERSSAGE
modifications: DGT-31 protein
[4]; T1 Arabidopsis, DGT-31 with TraP23, DGT-32, DGT-33 with TraP8, TraP14, TraP24
  tolerance to glyphosate: slight herbicide tolerance
